Test results as given in paper PMC8938452.

Assay: three-component macrocyclisation: bis(chloroacetamide) (1 eq) + diamine (1.2 eq) + CS2 (8 eq); in situ dithiocarbamate formation then S-alkylation (C-S bond, Cl displacement) at both ends, metal-free, no added base, 15 min
Details: the molecule shown is the open-chain precursor, PEG-200, 400.0 mM, 25.0 °C, 0.25 h

For `CCCCN(CCN(CCCC)C(=S)SCC(=O)N(C)CCN(C)C(=O)CCl)C(=S)[S-]` [1], which ring closure, isolated yield (16-membered ring) is on record?
Its ring closure, isolated yield is 61.3%.

Which ring closure, isolated yield (16-membered ring) does the source give for `CN(CCN(C)C(=O)CSC(=S)N(C)CCN(C)C(=S)[S-])C(=O)CCl` [2] here?
Its ring closure, isolated yield is 24.1%.

Which ring closure, isolated yield (17-membered ring) does the source give for `CN(CCN(C)C(=O)CSC(=S)NCCCNC(=S)[S-])C(=O)CCl` [3] here?
Its ring closure, isolated yield is 78.5%.

For `O=C(CCl)NCCCNC(=O)CSC(=S)NCCCNC(=S)[S-]` [4], which ring closure, isolated yield (18-membered ring) is on record?
The ring closure, isolated yield was 85.3%.

For `O=C(CCl)NCCCNC(=O)CSC(=S)NCCCCCCNC(=S)[S-]` [5], which ring closure, isolated yield (21-membered ring) is on record?
The ring closure, isolated yield was 74.7%.

Which ring closure, isolated yield (17-membered ring) does the source give for `O=C(CCl)NCCCNC(=O)CSC(=S)N(CCN(Cc1ccccc1)C(=S)[S-])Cc1ccccc1` [6] here?
Its ring closure, isolated yield is 69.4%.

For `CN(CCN(C)C(=S)SCC(=O)NCCN(C(=O)CCl)c1cccc2ccccc12)C(=S)[S-]` [7], which ring closure, isolated yield (16-membered ring) is on record?
Its ring closure, isolated yield is 84.6%.
